Measured values reported in patent publication US20110275699A1, “Treatment For Obesity And Diabetes” (University of California, priority 2010, published 2011).

Legend:
DNA-PK [1] = assay: DNA-PK phosphorylation in treated 293 cells (western blotting); format: cell-based; conditions: 2 hrs
Method: (§1) C57BL/6J male mice (Jackson laboratory) were used at 7 wks of age unless specified. For fasting/feeding experiments, mice were fasted for 40 hrs and then fed a high carbohydrate, fat-free diet for indicated time periods. HepG2 cells were grown in DMEM supplemented with 10% fetal bovine serum and 100 units/ml penicillin/streptomycin. M059J and M059K were from ATCC and grown in the same medium containing 4 mg/ml glutamine. HepG2 cells were maintained in serum free media overnight prior to insulin treatment. For insulin treatment, HepG2 cells were treated with 100 nM insulin or DMSO for 30 min. 293FT cells in DMEM supplemented with 10% fetal bovine serum and 100 units/ml penicillin/streptomycin/neomycin or 293F cells in 293 Freestyle medium were transfected with expression constructs or siRNA (Santa Cruz) using lipofectamine 2000 (Invitrogen) or 293 Fectin (Invitrogen), respectively. 293 cells were treated with either control DMSO or OA at 1 uM and Taut at indicated concentrations for 2 hrs. […]
(§2) Therefore, Applicants tested the S262 phosphorylation status of USF-1 upon treatment with okadaic acid (OA), which is known to prevent dephosphorylation of DNA-PK (Douglas et al., 2001). […] Similarly, PP1 was not detected in nuclear extracts from control HepG2 cells but was increased upon insulin treatment (FIG. 3H, right panel). […]

USF-1 [2] = assay: S262 phosphorylation of USF-1 in 293 cells (IP and western blotting); format: cell-based; conditions: 2 hrs
Method: as §1, with “hrs. Expression vectors for DNA-PK and mutants, HAT, HDAC9, PP1, Kus and −0.7 p53-Luc were from laboratories of Drs. Meek, Kouzarides, Zelent, Lamond, Shay and Oren respectively. siRNA for knockdown of DNA-PK is commercially available at Santa Cruz Biotechnology Inc.” for “hrs.”
Next S262 phosphorylation of USF-1 by DNA-PK in cultured cells was tested. […] Applicants detected higher S262 phosphorylation of USF-1 immunoprecipitated from cells overexpressing WT DNA-PK (FIG. 3B, left panel, lane 2), but not from cells expressing DNA-PK with T3950D mutation (FIG. 3B, lane 3) or control cells (FIG. 3B, lane 1). Furthermore, Applicants detected even higher S262 phosphorylation of USF-1 from cells expressing DNAPK with T3950A mutation compared to WT DNA-PK-expressing cells (FIG. 3B, middle panel, lane 3). […] WT USF-1, but not USF-1 containing S262A mutation, was detected to have higher phosphorylation upon cotransfection with DNA-PK (FIG. 3B, right panel, lanes 2 and 3). […]

USF-1 [3] = assay: USF-1 interaction (IP) and recruitment of proteins to the FAS promoter (ChIP) in 293 cells; format: cell-based; conditions: Taut at indicated concentrations for 2 hrs
Method: as §1, with “hrs. Expression vectors for DNA-PK and mutants, HAT, HDAC9, PP1, Kus and −0.7 p53-Luc were from laboratories of Drs.” for “hrs.”
Livers from fasted or fed mice were fixed with DSG at 2 mM for 45 min at RT before formaldehyde cross-linking Soluble chromatin was quantified by absorbance at 260 nm, and equivalent amounts of input DNA were immunoprecipitated. […]

USF-1 [4] = assay: USF-1 S262 phosphorylation/K237 acetylation in HepG2 cells with or without insulin; format: cell-based; conditions: HepG2, control siRNA-transfected cells, insulin 100 nM 30 min
Method: as §1, with “hrs. Expression vectors for DNA-PK and mutants, HAT, HDAC9, PP1, Kus and −0.7 p53-Luc were from laboratories of Drs. Meek, Kouzarides, Zelent, Lamond, Shay and Oren respectively. siRNA for knockdown of DNA-PK is commercially available at Santa Cruz Biotechnology Inc.” for “hrs.”

DNA-PK [5] = assay: DNA-PK phosphorylation in HepG2 cells with or without insulin; format: cell-based; conditions: insulin-treated HepG2 cells vs noninsulin-treated cells
Method: as §1, with “hrs. Expression vectors for DNA-PK and mutants, HAT, HDAC9, PP1, Kus and −0.7 p53-Luc were from laboratories of Drs.” for “hrs.”
DNA-PK activity is known to be regulated by phosphorylation/dephosphorylation, independent of its activation by DNA. […] DNA-PK phosphorylation was detected using phosphoserine/threonine antibodies that detect autophosphorylation at the S/TQ motifs of DNA-PK.

PP1 = PP1 in nuclear extracts of HepG2 cells; format: cell-based; conditions: insulin treatment vs control
Method: as §1, §2

USF-1 [6] = assay: USF-1 modifications in M059K cells containing WT DNA-PK; format: cell-based, human; conditions: insulin 100 nM 30 min
Method: as §1, with “hrs. Expression vectors for DNA-PK and mutants, HAT, HDAC9, PP1, Kus and −0.7 p53-Luc were from laboratories of Drs. Meek, Kouzarides, Zelent, Lamond, Shay and Oren respectively. siRNA for knockdown of DNA-PK is commercially available at Santa Cruz Biotechnology Inc.” for “hrs.”

USF-1 [7] = assay: USF-1 modifications in M059J cells lacking DNA-PKcs; format: cell-based, human; conditions: insulin 100 nM 30 min
Method: as §1, with “hrs. Expression vectors for DNA-PK and mutants, HAT, HDAC9, PP1, Kus and −0.7 p53-Luc were from laboratories of Drs. Meek, Kouzarides, Zelent, Lamond, Shay and Oren respectively. siRNA for knockdown of DNA-PK is commercially available at Santa Cruz Biotechnology Inc.” for “hrs.”

USF-1 [8] = assay: K237 acetylation of USF-1 in cells (IP and western blotting); format: cell-based; conditions: OA-treated cells vs control cells
Method: as §1, with “respectively.” for “respectively. 293 cells were treated with either control DMSO or OA at 1 uM and Taut at indicated concentrations for 2 hrs.”
Since USF-1 is both phosphorylated and acetylated at nearby sites and these posttranslational modifications are critical for USF-1 function in FAS promoter activation, we tested whether an increase in S262 phosphorylation of USF-1 could affect K237 acetylation. […] Conversely, we detected a significant level of K237 acetylation of USF-1 in control cells, which was reduced in OA-treated cells (FIG. 5B, left panel, lane 2). […]

Question: `CO[C@H]([C@H](O)CC(=O)[C@@H](C)[C@@H](O)CC[C@@H](C)[C@@H]1O[C@]2(CC[C@@H](C)[C@H](CC[C@H](C)C(C)=O)O2)CC[C@@H]1C)[C@H](OC(=O)C[C@@H](O)C1=C(C)C(=O)OC1=O)C(C)C` [Taut, tautomycin] was tested. Which “phosphorylated DNA-PK” value (DNA-PK [1]; Taut 1 uM, vs control cells) did it give?
Answer: easily detected

Question: What about the “S262 phosphorylation of USF-1” value (USF-1 [2]; Taut 10 nM) of the same compound?
Answer: decreased

Question: What about the “S262 phosphorylation of USF-1” value (USF-1 [2]; Taut 1 uM) of the same compound?
Answer: hardly detectable

Question: What about the “USF-1 interaction and recruitment of various proteins” value (USF-1 [3]) of the same compound?
Answer: abolished

Question: insulin was tested. Which “K237 acetylation of USF-1” value (USF-1 [4]) did it give?
Answer: markedly increased

Question: And the “S262 phosphorylation of USF-1” value (USF-1 [4])?
Answer: markedly increased

Question: And the DNA-PK phosphorylation (DNA-PK [5])?
Answer: not detectable

Question: What about the “PP1 in nuclear extracts” value (PP1) of the same compound?
Answer: increased

Question: What about the “K237 acetylation of USF-1” value (USF-1 [6]) of the same compound?
Answer: increased

Question: And the “S262 phosphorylation of USF-1” value (USF-1 [6])?
Answer: increased

Question: What about the “USF modifications (S262 phosphorylation, K237 acetylation)” value (USF-1 [7]) of the same compound?
Answer: did not result in any significant increase

Question: With `C=C1[C@@H](O)[C@@H]2O[C@]3(CC[C@H](/C=C/[C@@H](C)[C@@H]4CC(C)=C[C@@]5(O[C@H](C[C@@](C)(O)C(=O)O)CC[C@H]5O)O4)O3)CC[C@H]2O[C@@H]1[C@@H](O)C[C@H](C)[C@H]1O[C@@]2(CCCCO2)CC[C@H]1C` [OA, okadaic acid] as the compound, how does the “phosphorylation of DNA-PK” value (DNA-PK [1]; OA 1 uM, vs control DMSO) read?
Answer: greatly increased

Question: And the “S262 phosphorylation of USF-1” value (USF-1 [2]; OA 1 uM, vs control DMSO)?
Answer: hardly detectable

Question: And the “K237 acetylation of USF-1” value (USF-1 [8])?
Answer: reduced
